# PubChem BioAssay (NCI)
# Values joined by “and” are separate entries in the source; they are usually repeats but may differ in a detail not shown here. Equal entries are not always repeated.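 Five concentrations, 48 hours, 96-well plates. Here, GI50 denotes the concentration required for 50% inhibition of growth. TGI is the concentration that stops growth completely.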
# Assays:
# Experiment in all cases: inhibition of tumour cell growth, NCI panel, 48 h
# LOX IMVI melanoma = system: LOX IMVI melanoma
# K-562 leukemia = system: K-562 leukemia
# HL-60(TB) leukemia = system: HL-60(TB) leukemia
# RPMI-8226 leukemia = system: RPMI-8226 leukemia
# NCI-H23 lung = system: NCI-H23 lung
# SK-MEL-2 melanoma = system: SK-MEL-2 melanoma
# SNB-75 CNS = system: SNB-75 CNS
# MCF7 breast = system: MCF7 breast
# SF-268 CNS = system: SF-268 CNS
# TK-10 renal = system: TK-10 renal
SMILES,GI50 (LOX IMVI melanoma),TGI (LOX IMVI melanoma),GI50 (K-562 leukemia) [µM],TGI (K-562 leukemia),GI50 (HL-60(TB) leukemia),TGI (HL-60(TB) leukemia),GI50 (RPMI-8226 leukemia),TGI (RPMI-8226 leukemia),GI50 (NCI-H23 lung),TGI (NCI-H23 lung),GI50 (SK-MEL-2 melanoma),TGI (SK-MEL-2 melanoma),GI50 (SNB-75 CNS),TGI (SNB-75 CNS),GI50 (MCF7 breast),TGI (MCF7 breast),GI50 (SF-268 CNS),TGI (SF-268 CNS),GI50 (TK-10 renal),TGI (TK-10 renal)
CCCn1c(C)nc2c1C(=O)c1ccccc1C2=O,22.9 µM,> 100 µM,9.87,> 100 µM,9.61 µM,45.8 µM,17.2 µM,> 100 µM,26.7 µM,> 100 µM,59.4 µM,> 100 µM,55.4 µM,> 100 µM,30.9 µM,> 100 µM,20.8 µM,> 100 µM,65.2 µM,> 100 µM
Clc1cc(Cl)c(OCC#CI)cc1Cl,1.33 µM,2.74 µM,3.49,18.9 µM,2 µM,5.22 µM,2.27 µM,8.38 µM,12.6 µM,26.7 µM,7.98 µM,21.3 µM,6.13 µM,20 µM,1.69 µM,3.58 µM,11 µM,23.4 µM,3.45 µM,13.2 µM
COC(=O)Cn1c2c(c3c(O)cccc31)C(=O)c1ccccc1-2,> 100 µM,> 100 µM,> 100,> 100 µM,> 100 µM,> 100 µM,> 100 µM,> 100 µM,> 100 µM,> 100 µM,> 100 µM,> 100 µM,> 100 µM,> 100 µM,> 100 µM,> 100 µM,> 100 µM,> 100 µM,45.4 µM,> 100 µM
O=C(N/N=C/c1ccc2c(c1)CCC2)c1ccccc1O,–,> 100 µM,–,> 100 µM,–,> 100 µM,–,> 100 µM,–,82.2 µM,–,60 µM,–,38 µM,–,34 µM,–,74.7 µM,–,51.1 µM
Nc1ncnc2[nH]ncc12,0.34 µM,> 41 µM,0.279,> 100 µM,0.361 µM,2.56 µM,0.378 µM,14.3 µM,1.59 µM,38.1 µM,0.369 µM,2.91 µM,2.1 µM,> 100 µM,0.435 µM,> 100 µM,4.19 µM,> 100 µM,0.589 µM,> 47.6 µM
O=C(/C(=C/c1ccccc1)CN1CCCCC1)c1ccccc1,0.364 µM,1.5 µM,0.566,> 33.6 µM,1.22 µM,10.2 µM,0.8 µM,5.13 µM,1.49 µM,4.3 µM,1.6 µM,4.01 µM,3.76 µM,17.8 µM,0.464 µM,2.85 µM,2.63 µM,15 µM,0.662 µM,1.74 µM
C=CCOC1OC(CO[Si](C)(C)C(C)(C)C)C(OCc2ccccc2)C(OCc2ccccc2)C1OCc1ccccc1 (configuration not stated),–,> 100 µM,–,> 100 µM,–,> 100 µM,–,> 100 µM,–,> 100 µM,–,> 100 µM,–,51.1 µM,–,> 100 µM,–,> 100 µM,–,> 100 µM
O=S(=O)(NCCNC/C=C/c1ccc(Br)cc1)c1cccc2cnccc12,7.64 µM and 12.1 µM,25.6 µM and 25.2 µM,6.63,> 36.7 µM and 27.3 µM,> 24.6 µM and 9.48 µM,> 49.4 µM and 28.1 µM,5.2 µM and 12 µM,25.3 µM and 35.2 µM,11.3 µM and 13.1 µM,25.8 µM and 27.5 µM,11.2 µM and 16.8 µM,24.4 µM and 34 µM,3.14 µM and 1.85 µM,14.7 µM and 13.5 µM,8.98 µM and 9.53 µM,25.1 µM and 25.4 µM,8.14 µM and 11.1 µM,22.1 µM and 25.7 µM,5.92 µM and 10.3 µM,19.6 µM and 23 µM
Cc1cc(N/N=C/c2nc(-c3ccc(Br)cc3)oc2C)c2cc(Cl)ccc2n1,> 100 µM,> 100 µM,> 100,> 100 µM,> 100 µM,> 100 µM,> 100 µM,> 100 µM,> 100 µM,> 100 µM,> 100 µM,> 100 µM,> 100 µM,> 100 µM,> 100 µM,> 100 µM,> 100 µM,> 100 µM,> 100 µM,> 100 µM
C=C1CC[C@@H]2[C@](C)(COC(C)=O)[C@@H](O)CC[C@@]2(C)[C@@H]1COc1ccc2ccc(=O)oc2c1,> 100 µM,> 100 µM,62.6,> 100 µM,> 100 µM,> 100 µM,26.3 µM,> 100 µM,> 100 µM,> 100 µM,> 100 µM,> 100 µM,17.6 µM,> 100 µM,> 100 µM,> 100 µM,> 100 µM,> 100 µM,> 100 µM,> 100 µM
COc1ccc2cc(-c3ccoc(=O)c3-c3cc(OC)c(OC)c(OC)c3)ccc2c1,1.15 µM,> 100 µM,0.0346,> 39.4 µM,0.0353 µM,0.793 µM,0.218 µM,13.4 µM,0.141 µM,–,0.0752 µM,> 100 µM,0.0977 µM,> 100 µM,0.0322 µM,> 57.5 µM,0.626 µM,> 100 µM,–,> 100 µM
CNC(=O)OCc1c(COC(=O)NC)c(C)n(-c2ccc(Br)cc2)c1C,–,23.9 µM,–,95.1 µM,–,31.9 µM,–,31.6 µM,–,35.4 µM,–,31 µM,–,19.1 µM,–,25.9 µM,–,34.5 µM,–,51.5 µM
O=C1C(=O)c2c(nc3ccc(Cl)cn23)-c2ccccc21,0.216 µM,0.498 µM,0.163,> 100 µM,0.235 µM,–,0.35 µM,2.88 µM,0.324 µM,1.47 µM,0.432 µM,1.61 µM,1.25 µM,2.61 µM,0.167 µM,0.356 µM,0.307 µM,1.18 µM,1.8 µM,3.59 µM
C=CC(=O)N1CCN(c2ccc3cccc(NC(=O)c4cnc(C)cn4)c3n2)CC1,5.14 µM,21.4 µM,3.6,> 100 µM,2.2 µM,6.61 µM,1.5 µM,6.52 µM,4.49 µM,19.5 µM,3.37 µM,27.8 µM,0.565 µM,9.66 µM,3.44 µM,> 100 µM,3.67 µM,49.2 µM,1.12 µM,> 100 µM
C=CC(=O)Nc1cccc(C)c1Nc1cc(-c2cccnc2Cc2c(C)c(OC)cc(OC)c2C)ncn1,6.12 µM,19.8 µM,7.55,> 100 µM,5.22 µM,48.9 µM,3.37 µM,24.9 µM,12.7 µM,47.3 µM,12.6 µM,32.4 µM,13.2 µM,91.2 µM,5.27 µM,> 100 µM,9.59 µM,60.3 µM,10.8 µM,99.4 µM
N=C(N)c1ccc(N2CCCN(c3ccc(C(=N)N)cc3)CC2)cc1,56.1 µM,> 100 µM,89.6,> 100 µM,> 100 µM,> 100 µM,> 100 µM,> 100 µM,74.5 µM,> 100 µM,> 100 µM,> 100 µM,> 100 µM,> 100 µM,52.3 µM,> 100 µM,57.7 µM,> 100 µM,58.2 µM,> 100 µM
O[C@H]1CO[C@H]2[C@@H]1OC[C@@H]2Oc1ccc(Nc2ccnc(Nc3ccc(O[C@H]4CO[C@H]5[C@@H]4OC[C@@H]5O)c(Cl)c3)n2)cc1Cl,1.26 µM,3.18 µM,1.27,18.4 µM,1.57 µM,4.7 µM,1.05 µM,3.24 µM,1.49 µM,4.6 µM,1.71 µM,5.02 µM,1.27 µM,4.77 µM,1.73 µM,5.44 µM,1.63 µM,4.98 µM,2.14 µM,10.5 µM
O=C(c1ccccc1)C(CN1CCOCC1)c1ccccc1 (configuration not stated),1.32 µM,3.19 µM,0.355,3.38 µM,1.95 µM,5.57 µM,0.793 µM,4.74 µM,2.79 µM,12.3 µM,1.67 µM,3.39 µM,2.29 µM,12 µM,1.25 µM,2.66 µM,1.65 µM,3.47 µM,1.19 µM,2.44 µM
Cc1ccc(C2=NOC3=c4ccccc4=CSC3=C2c2ccc([N+](=O)[O-])cc2)cc1,16.2 µM,53.8 µM,36.1,> 100 µM,> 100 µM,> 100 µM,44.4 µM,> 100 µM,17.8 µM,53.7 µM,31.5 µM,> 100 µM,24.5 µM,81.4 µM,11.1 µM,88.8 µM,18.1 µM,46.7 µM,13 µM,40.3 µM
